Experimental data published in patent US7153863B2, “Therapeutic compounds based on pyrazolopyridline derivatives” (SmithKline Beecham Corporation, priority 2002, dated 2006).

System: HSV-1
Experiment: HSV-1 infection of Vero 76 cells, HSV DNA hybridization capture assay
Type: cell-based, herpes simplex virus 1
Conditions: Human alphaherpesvirus 1; HSV-1 (MOI=0.001) in Vero 76 cells, 40–48 hours at 37° C., viral DNA by hybridization/chemiluminescence
Method: Vero 76 cells were maintained in MEM with Earle's salts, L-glutamine, 8% FBS (Hyclone, A-1111-L) and 100 units/mL Penicillin-100 μg/mL Streptomycin. For assay conditions, FBS was reduced to 2%. Cells are seeded into 96-well tissue culture plates at a density of 5×10^4 cells/well after being incubated for 45 min at 37° C. in the presence of HSV-1 or HSV-2 (MOI=0.001). Test compounds are added to the wells and the plates are incubated at 37° C. for 40–48 hours. Cell lysates are prepared as follows: media was removed and replaced with 150 μL/well 0.2 N NaOH with 1% Igepal CA 630 or NP-40. Plates were incubated up to 14 days at room temperature in a humidified chamber to prevent evaporation.
For the detection probe, a gel-purified, digoxigenin-labeled, […] PCR fragment of the HSV UL-15 sequence was utilized. PCR conditions included 0.5 μM primers, 180 μM dTP, 20 μM dUTP-digoxigenin (Boehringer Mannheim 1558706), 200 μM each of dATP, dCTP, and dGTP, 1×PCR Buffer II (Perkin Elmer), 2.5 mM MgCl2, 0.025 units/μL of AmpliTaq Gold polymerase (Perkin Elmer), and 5 ng of gel-purified HSV DNA per 100 μL Extension conditions were 10 min at 95° C., followed by 30 cycles of 95° C. for 1 min, 55° C. for 30 sec, and 72° C. for 2 min. The amplification was completed with a 10-min incubation at 72° C. Primers were selected to amplify a 728 bp probe spanning a section of the HSV1 UL15 open reading frame (nucleotides 249–977). Single-stranded transcripts were purified with Promega M13 Wizard kits. The final product was mixed 1:1 with a mixture of 6 M GuSCN, 100 mM EDTA and 200 μg/mL herring sperm DNA and stored at 4° C.
The capture DNA plasmid (HSV UL13 region in pUC) was linearized by cutting with Xba I, denatured for 15 min at 95° C. and diluted immediately into Reacti-Bind DNA Coating Solution (Pierce, 17250, diluted 1:1 with TE buffer, pH 8) at 1 ng/μL 75 μL/well were added to Corning (#3922 or 9690) white 96-well plates and incubated at room temperature for at least 4 hrs before washing twice with 300 μL/well 0.2×SSC/0.05% Tween-20 (SSC/T buffer). The plates were then incubated overnight at room temperature with 150 μL/well 0.2 N NaOH, 1% IGEPAL and 10 μg/mL herring sperm DNA.
Twenty-seven (27) μL of cell lysate was combined with 45 μL of hybridization solution (final concentration: 3M GuSCN, 50 mM EDTA, 100 μg/ml salmon sperm DNA, 5× Denhardt's solution, 0.25×APE, and 5 ng of the digoxigenin-labeled detection probe). APE is 1.5 M NH4-acetate, 0.15 M ammonium phosphate monobasic, and 5 mM EDTA adjusted to pH 6.0. Mineral oil (50 μL) was added to prevent evaporation. The hybridization plates were incubated at 95° C. for 10 minutes to denature the DNA, then incubated at 42° C. overnight. The wells were washed 6× with 300 μL/well SSC/T buffer then incubated with 75 μL/well anti-digoxigenin-HRP-conjugated antibody (Boehringer Mannheim 1207733, 1:5000 in TE) for 30 min at room temperature. The wells were washed 6× with 300 μL/well with PBS/0.05% Tween-20 before 75 μL/well SuperSignal LBA substrate (Pierce) was added. The plates were incubated at room temperature for 30 minutes and chemiluminescence was measured in a Wallac Victor reader.
The following results were obtained for HSV-1.

With `c1cc(NC2CCCC2)n2nc(C3CC3)c(-c3ccnc(NC4CCCC4)n3)c2c1` [Example 36, N-Cyclopentyl-3-[2-(cyclopentylamino)pyrimidin-4-yl]-2-cyclopropylpyrazolo[1,5-a]pyridin-7-amine] the IC50 was 900 nM.
